Measurements as given in patent publication US20260217701A1, “SELECTIVE BET INHIBITORS AND USES THEREOF” (Tay Therapeutics Limited, priority 2022, published 2026).
“And” between values parts separate entries of the source, which are not always exact repeats. Identical values can stand only once.

Tested on: imiquimod-induced psoriasis
Assay: Imiquimod-induced psoriasis model
Type: in vivo, mice
Design: Spleen Weight / Spleen Weight Ratio: unit not given here
Conditions: for PASI Scores: IMI + Clobetasol 0.05%; for Mean scores of the presence of erythema on the skin of animals at the area of induction of psoriasis / Mean scores of the presence of induration on the skin of animals at the area of induction of psoriasis / Mean scores of the presence of peeling on the skin of animals at the area of induction of psoriasis: mean ± SEM
From the text: Imiquimod-induced psoriasis is a model of psoriasis in mice that induces psoriasis-like dermatitis. The pathology closes resembles human plaque-type psoriasis and is a valuable tool for testing new therapies against psoriasis. […] Compound A was formulated in a 5% DMSO/40% PEG-400/55% (0.9% NaCl w/v water) solution (Table 2F). Experimental groups for the study are outlined in Table 4. Prior to study initiation, the backs of all animals in the study were depilated to allow for induction of psoriasis and monitoring of disease progression.
Once assigned to experimental groups, on Day 1 and continuing through Day 14, topical imiquimod (IMI; Aldara™ containing 5% Imiquimod) was administered to the dorsal depilated animals, and animals in group 1 received topical administration of Excipial® hydrocream (65 mg). […] Clobetasol was applied topically for animals in group 11.
Body weights were recorded three times a week from Day 1 to Day 8, and daily from Day 8 until the study end at Day 15. At termination on D15 the spleen weight ratio was determined. Disease severity was assessed using the psoriasis area severity index (PASI) daily from Day 8 until study completion on Day 15. The PASI score was calculated based on three parameters (presence of erythema, induration of the skin, and peeling of the skin at the area of induction) on a scale of 0 to 4 (0=no more or absence, 1=low, 2=moderate, 3=high, 4=severe). The PASI score for each animal was calculated as the sum of the score of each parameter measured. The score of the use of enrichment (SUE) was also assessed daily from Day 8 to Day 15. At study completion on Day 15, animal behavior was evaluated using an open field to assess distance travelled, number scratching, and licking and rearing performed in 10 minutes. Upon study termination animals were sacrificed, the spleen was excised and weighed, and blood samples were collected. Serum was isolated from the blood sample for cytokine and other biomarker analysis. IL-1B, IL-6, IL-17, and TNF-α assayed using simple plex technique on an ELLA automated immunoassay system. IL-22 and IL-23 were assayed by ELISA.
The imiquimod-induced model of psoriasis was used to assess the efficacy of Compound A in treating psoriasis. […] Treatment started on Day 8 after induction so reference to day 1 of treatment is to Day 8 and day 7 of treatment is to Day 14.

[1] = IMI-psoriasis model, behavioral evaluation D15, 0.05%, individual animals
[2] = IMI-psoriasis model, behavioral evaluation, 0.05%, individual animals
[3] = IMI-psoriasis model, mice, 0.05%, individual animals
[4] = IMI + 0.05%, D8 (before start of treatment)

Compound: C[C@H]1C[C@H]2[C@@H]3CCC4=CC(=O)C=C[C@]4(C)[C@@]3(F)[C@@H](O)C[C@]2(C)[C@@]1(O)C(=O)CCl [Clobetasol, reference compound]
- Body Weight D1 (IMI + 0.05%, Day 1 (before treatment start on Day 8), individual animals): 17.07 and 17.52 and 19.31 and 18.57 and 18.72 and 16.56 and 17.64 and 16.77
- Body Weight D3 (IMI + 0.05%, Day 3 (before treatment start on Day 8), individual animals): 14.93 and 16.02 and 17.76 and 17.57 and 17.77 and 14.09 and 14.81 and 14.86
- Body Weight D5 (IMI + 0.05%, Day 5 (before treatment start on Day 8), individual animals): 16.15 and 15.56 and 18.21 and 17.74 and 16.72 and 15.29 and 15.64 and 15.11
- Body Weight D7 (IMI + 0.05%, Day 7 (before treatment start on Day 8), individual animals): 15.51 and 15.49 (2×) and 18.30 and 17.72 and 17.41 and 15.14 and 16.24
- Body Weight D8 (IMI + 0.05%, Day 8 (first day of treatment), individual animals): 15.82 and 15.39 and 18.05 and 17.68 and 16.64 and 14.96 and 16.14 and 14.67
- Body Weight D9 (IMI + 0.05%, Day 9, individual animals): 15.95 and 14.96 and 17.53 and 16.98 and 15.65 and 14.35 and 14.99 and 14.71
- Body Weight D10 (IMI + 0.05%, Day 10, individual animals): 15.11 and 14.48 and 17.43 and 16.38 and 15.37 and 14.04 and 14.71 and 14.32
- Body Weight D11 (IMI + 0.05%, Day 11, individual animals): 15.27 and 14.85 and 17.41 and 16.38 and 15.58 and 13.84 and 14.92 and 14.21
- Body Weight D12 (IMI + 0.05%, Day 12, individual animals): 14.64 and 14.74 and 17.02 and 15.95 and 15.45 and 13.69 and 15.73 and 14.31
- Body Weight D13 (IMI + 0.05%, Day 13, individual animals): 14.45 and 14.82 and 16.74 and 15.71 and 15.24 and 13.39 and 14.65 and 14.05
- Body Weight D14 (IMI + 0.05%, Day 14, individual animals): 14.55 and 14.89 and 16.65 and 15.49 and 15.08 and 13.55 and 14.66 and 14.04
- Body Weight D15 (IMI + 0.05%, Day 15, individual animals): 14.30 and 14.75 and 16.22 and 15.41 and 14.99 and 13.32 and 14.54 and 14.22
- MBWC D1-D8 (IMI + 0.05%, body weight change Day 1 to Day 8 (before treatment), individual animals): −1.25 and −2.13 and −1.26 and −0.89 and −2.08 and −1.60 and −1.50 and −2.10
- MBWC D8-D15 (IMI + 0.05%, body weight change Day 8 to Day 15 (treatment period), individual animals): −1.52 and −0.64 and −1.83 and −2.27 and −1.65 and −1.64 and −1.60 and −0.45
- PASI Scores (D8 (day treatment started), individual animals): 7 (5×) and 8 (3×)
- PASI Scores (D9, individual animals): 6 (2×) and 4 (4×) and 5 (2×)
- PASI Scores (D10, individual animals): 3 (5×) and 2 (2×) and 4
- PASI Scores (D11, individual animals): 0 (5×) and 1 and 2 (2×)
- PASI Scores (D12, individual animals): 1 (6×) and 0 (2×)
- PASI Scores (D13, individual animals): 1 (3×) and 0 (5×)
- PASI Scores (D14, individual animals): 0 (7×) and 1
- PASI Scores (D15, individual animals): 0 (7×) and 1
- Use Enrichment D1 (IMI-psoriasis model, D1, 0.05%, per cage (two animals)): 4.0
- Use Enrichment D9 (IMI-psoriasis model, D9, 0.05%, per cage (two animals)): 2.0 and 1.5 and 1.0
- Use Enrichment D10 (IMI-psoriasis model, D10, 0.05%, per cage (two animals)): 4.0 and 3.5 and 3.0
- Use Enrichment D11 (IMI-psoriasis model, D11, 0.05%, per cage (two animals)): 4.0 and 3.0
- Use Enrichment D13 (IMI-psoriasis model, D13, 0.05%, per cage (two animals)): 4.0 and 3.5
- Use Enrichment D14 (IMI-psoriasis model, D14, 0.05%, per cage (two animals)): 4.0
- Use Enrichment D15 (IMI-psoriasis model, D15, 0.05%, per cage (two animals)): 4.0
- Number Licking [1]: 1 (2×) and 2 (4×) and 5 (2×)
- Number Licking + Scratching [1]: 1 (2×) and 2 (4×) and 5 (2×)
- Number Scratching [1]: 0
- Distance Traveled [2]: 9 m (2×) and 5 m and 10 m (3×) and 15 m and 16 m
- Number Rearings [2]: 10 and 6 (2×) and 31 and 19 and 4 and 39 and 25
- Use Enrichment Mean D1-D8 (IMI-psoriasis model, mean D1-D8, 0.05%, per cage (two animals)): 2.50 and 2.75 and 2.25
- Use Enrichment Mean D8-D15 (IMI-psoriasis model, mean D8-D15, 0.05%, per cage (two animals)): 3.71 and 3.50 and 2.86 and 3.14
- Spleen Weight [3]: 39.92 and 30.38 and 50.46 and 44.29 and 37.25 and 36.61 and 35.08 and 34.69
- Spleen Weight Ratio [3]: 279.16 and 205.97 and 311.10 and 287.41 and 248.50 and 274.85 and 241.27 and 243.95
- Mean scores of the presence of erythema on the skin of animals at the area of induction of psoriasis [4]: 2.3 ± 0.2
- Mean scores of the presence of induration on the skin of animals at the area of induction of psoriasis [4]: 2.8 ± 0.2
- Mean scores of the presence of peeling on the skin of animals at the area of induction of psoriasis [4]: 2.4 ± 0.2
- Mean scores of the presence of erythema on the skin of animals at the area of induction of psoriasis (IMI + 0.05%, D9): 1.8 ± 0.2
- Mean scores of the presence of induration on the skin of animals at the area of induction of psoriasis (IMI + 0.05%, D9): 1.3 ± 0.2
- Mean scores of the presence of peeling on the skin of animals at the area of induction of psoriasis (IMI + 0.05%, D9): 1.8 ± 0.3
- Mean scores of the presence of erythema on the skin of animals at the area of induction of psoriasis (IMI + 0.05%, D10): 1.0 ± 0.2
- Mean scores of the presence of induration on the skin of animals at the area of induction of psoriasis (IMI + 0.05%, D10): 1.0 ± 0.0
- Mean scores of the presence of peeling on the skin of animals at the area of induction of psoriasis (IMI + 0.05%, D10): 0.9 ± 0.1
- Mean scores of the presence of erythema on the skin of animals at the area of induction of psoriasis (IMI + 0.05%, D11): 0.3 ± 0.2
- Mean scores of the presence of induration on the skin of animals at the area of induction of psoriasis (IMI + 0.05%, D11): 0.0 ± 0.0
- Mean scores of the presence of peeling on the skin of animals at the area of induction of psoriasis (IMI + 0.05%, D11): 0.4 ± 0.2
- Mean scores of the presence of erythema on the skin of animals at the area of induction of psoriasis (IMI + 0.05%, D12): 0.0 ± 0.0
- Mean scores of the presence of induration on the skin of animals at the area of induction of psoriasis (IMI + 0.05%, D12): 0.0 ± 0.0
- Mean scores of the presence of peeling on the skin of animals at the area of induction of psoriasis (IMI + 0.05%, D12): 0.8 ± 0.2
- Mean scores of the presence of erythema on the skin of animals at the area of induction of psoriasis (IMI + 0.05%, D13): 0.0 ± 0.0
- Mean scores of the presence of induration on the skin of animals at the area of induction of psoriasis (IMI + 0.05%, D13): 0.0 ± 0.0
- Mean scores of the presence of peeling on the skin of animals at the area of induction of psoriasis (IMI + 0.05%, D13): 0.4 ± 0.2
- Mean scores of the presence of erythema on the skin of animals at the area of induction of psoriasis (IMI + 0.05%, D14): 0.0 ± 0.0
- Mean scores of the presence of induration on the skin of animals at the area of induction of psoriasis (IMI + 0.05%, D14): 0.0 ± 0.0
- Mean scores of the presence of peeling on the skin of animals at the area of induction of psoriasis (IMI + 0.05%, D14): 0.1 ± 0.1
- Mean scores of the presence of erythema on the skin of animals at the area of induction of psoriasis (IMI + 0.05%, D15): 0.0 ± 0.0
- Mean scores of the presence of induration on the skin of animals at the area of induction of psoriasis (IMI + 0.05%, D15): 0.0 ± 0.0
- Mean scores of the presence of peeling on the skin of animals at the area of induction of psoriasis (IMI + 0.05%, D15): 0.1 ± 0.1
- Mean PASI Scores in IMI-Psoriasis Model (mice, IMI + 0.05%, D8 (before start of treatment)): 7.4 ± 0.2
- Mean PASI Scores in IMI-Psoriasis Model (mice, IMI + 0.05%, D9): 4.8 ± 0.3
- Mean PASI Scores in IMI-Psoriasis Model (mice, IMI + 0.05%, D10): 2.8 ± 0.2
- Mean PASI Scores in IMI-Psoriasis Model (mice, IMI + 0.05%, D11): 0.6 ± 0.3
- Mean PASI Scores in IMI-Psoriasis Model (mice, IMI + 0.05%, D12): 0.8 ± 0.2
- Mean PASI Scores in IMI-Psoriasis Model (mice, IMI + 0.05%, D13): 0.4 ± 0.2
- Mean PASI Scores in IMI-Psoriasis Model (mice, IMI + 0.05%, D14): 0.1 ± 0.1
- Mean PASI Scores in IMI-Psoriasis Model (mice, IMI + 0.05%, D15): 0.1 ± 0.1
